pIC50: −log10 of the molar value.
Columns and labels:
human IKKα = molecular target: T1, human IKKα (Homo sapiens, UniProt O15111); test: IKKα kinase inhibition assay (phosphorylation of IκBα substrate, 33P-ATP); type: biochemical; details: flag-tagged human IKKα 3.6 μg/ml, GST-IκBα (1-54) 245 μg/ml, 250 nM ATP, 1 hour at 25° C.
T1 construct: FLAG (N)
T1 sequence (O15111 1-745): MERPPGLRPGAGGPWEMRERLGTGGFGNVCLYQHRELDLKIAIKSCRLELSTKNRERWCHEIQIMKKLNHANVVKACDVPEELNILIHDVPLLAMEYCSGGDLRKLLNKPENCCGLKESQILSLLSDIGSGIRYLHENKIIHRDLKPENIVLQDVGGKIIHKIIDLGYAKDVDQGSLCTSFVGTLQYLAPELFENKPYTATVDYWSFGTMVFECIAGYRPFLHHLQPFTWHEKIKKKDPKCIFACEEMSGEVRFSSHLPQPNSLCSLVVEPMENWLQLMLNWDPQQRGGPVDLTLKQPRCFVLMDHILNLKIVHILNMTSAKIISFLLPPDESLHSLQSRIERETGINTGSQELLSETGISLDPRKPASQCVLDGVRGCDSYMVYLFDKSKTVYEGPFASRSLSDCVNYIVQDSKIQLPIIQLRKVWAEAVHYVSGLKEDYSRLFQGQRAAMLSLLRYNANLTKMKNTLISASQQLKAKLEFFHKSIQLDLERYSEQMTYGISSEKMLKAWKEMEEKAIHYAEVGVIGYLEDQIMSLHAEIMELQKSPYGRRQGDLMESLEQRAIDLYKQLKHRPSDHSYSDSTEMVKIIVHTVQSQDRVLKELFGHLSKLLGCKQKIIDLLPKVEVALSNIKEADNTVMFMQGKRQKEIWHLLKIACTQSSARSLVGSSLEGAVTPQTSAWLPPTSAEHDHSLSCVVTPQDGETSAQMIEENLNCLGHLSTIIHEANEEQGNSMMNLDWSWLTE
Procedure: The inhibition of IKKα and IKKβ by the compounds of the present invention was determined with the following assay that measures the phosphorylation of the IκBα substrate by the respective kinases. The enzymes used in the assay were N-terminally flag-tagged versions of the human IKKβ or IKKα and the substrate was a GST fusion protein with IκBα (amino acids 1-54).
The reaction mixtures (60 μl) contained 20 mM HEPES pH 7.5, 10 mM MgCl2, 2 mM MnCl2, 100 mM NaCl, 100 μM Na3VO4, 20 mM β-glycerophosphate, 1 mM DTT, 2% DMSO, 250 nM ATP, 0.4 nM [^33P]ATP (specific activity, 3000 Ci/mmol), IκBα substrate, IKK enzyme and test compound. The reaction mixtures contained either 3.6 μg/ml IKKα and 245 μg/ml IκBα or 0.9 μg/ml IKKβ and 53 μg/ml IκBα.
Reactions were initiated by adding a solution of IκBα substrate and ATP to polypropylene plates containing IKK enzyme that was pre-incubated for 5 minutes with test compound. Then the reaction mixtures were incubated for 1 hour at 25° C., placed on ice and quenched by the addition of 150 μl 10% trichloroacetic acid and 5% disodium pyrophosphate. After mixing, the entire contents of the quenched reaction mixtures were transferred to a pre-wetted Packard UniFilter filtration plate, aspirated and washed 6 times with 250 μl of ddH2O using the Packard Filtermate Harvester. Filtration plates were then air dried, supplemented with 40 μl of Microscint 20 scintillation fluid and the ^33P-labeled reaction products were quantified using the Packard TopCount scintillation counter.
Compounds were tested in three-fold serial dilutions and inhibitor concentrations to achieve 50% inhibition of enzyme activity (i.e., IC50) were derived from dose-reponse curves using SAS software (SAS Institute, Cary N.C.). A non-linear regression analysis based on the Hill equation was applied to the percent inhibition versus concentration data. In all cases, compound concentrations were verified by HPLC.

human IKKβ = molecular target: T2, human IKKβ (Homo sapiens, UniProt O14920); test: IKKβ kinase inhibition assay (phosphorylation of IκBα substrate, 33P-ATP); type: biochemical; details: flag-tagged human IKKβ 0.9 μg/ml, GST-IκBα (1-54) 53 μg/ml, 250 nM ATP, 1 hour at 25° C.
T2 construct: FLAG (N)
T2 sequence (O14920 1-756): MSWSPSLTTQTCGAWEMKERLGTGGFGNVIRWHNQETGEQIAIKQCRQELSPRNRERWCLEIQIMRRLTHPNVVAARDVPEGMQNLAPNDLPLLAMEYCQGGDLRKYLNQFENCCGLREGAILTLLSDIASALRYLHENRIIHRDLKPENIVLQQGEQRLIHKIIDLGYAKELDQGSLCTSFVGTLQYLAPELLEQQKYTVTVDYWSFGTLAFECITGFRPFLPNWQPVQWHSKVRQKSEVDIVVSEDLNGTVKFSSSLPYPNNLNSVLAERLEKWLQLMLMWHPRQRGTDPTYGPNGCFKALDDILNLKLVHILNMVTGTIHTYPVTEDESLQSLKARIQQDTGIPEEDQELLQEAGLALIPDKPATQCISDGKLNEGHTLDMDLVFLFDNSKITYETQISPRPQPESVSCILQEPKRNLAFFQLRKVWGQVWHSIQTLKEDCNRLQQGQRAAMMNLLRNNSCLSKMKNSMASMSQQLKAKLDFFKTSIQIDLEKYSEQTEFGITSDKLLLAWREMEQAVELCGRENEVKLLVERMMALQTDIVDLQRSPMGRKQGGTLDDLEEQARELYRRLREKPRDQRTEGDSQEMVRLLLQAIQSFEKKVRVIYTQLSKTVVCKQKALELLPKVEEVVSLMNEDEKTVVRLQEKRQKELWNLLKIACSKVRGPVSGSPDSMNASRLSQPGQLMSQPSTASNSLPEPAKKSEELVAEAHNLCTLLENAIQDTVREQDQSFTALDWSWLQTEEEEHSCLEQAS
Summary of the method: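 N-terminally Flag-tagged human IKKα (3.6 μg/ml) or IKKβ (0.9 μg/ml) phosphorylating GST-IκBα(1-54) (245 or 53 μg/ml respectively), 250 nM ATP plus [33P]ATP, pH 7.5 HEPES with Mg2+/Mn2+, 2% DMSO; 5 min compound preincubation, 1 h at 25 °C.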

| Compound | pIC50 (human IKKα) | pIC50 (human IKKβ) | melting point |
| --- | --- | --- | --- |
| CC(C)c1cc(N2CCC(N)CC2)nc2sc(C(N)=O)c(N)c12 [3-Amino-6-(4-amino-piperidin-1-yl)-4-isopropyl-thieno[2,3-b] pyridine-2-carboxylic acid amide] | ≥ 5.00 | > 6.00 |  |
| NC(=O)c1sc2nc(N3CCC(N)CC3)cc(C(=O)Nc3cccnc3)c2c1N [3-Amino-6-(4-amino-piperidin-1-yl)-thieno[2,3-b]pyridine-2,4-dicarboxylic acid 2-amide 4-pyridin-3-ylamide] | ≥ 5.00 | > 6.00 |  |
| Cc1cc(N2CCC(N)CC2)nc2sc(C(N)=O)c(N)c12 [3-Amino-6-(4-amino-piperidin-1-yl)-4-methyl-thieno[2,3-b] pyridine-2-carboxylic acid amide] | ≥ 5.00 | > 6.00 |  |
| NC(=O)c1sc2nc(N3CCC(N)CC3)cc(C(=O)Nc3ccncc3)c2c1N [3-Amino-6-(4-amino-piperidin-1-yl)-thieno[2,3-b]pyridine-2,4-dicarboxylic acid 2-amide 4-pyridin-4-ylamide] | ≥ 5.00 | > 6.00 |  |
| CCCc1cc(N2CCC(NCC(O)c3ccc(NS(C)(=O)=O)cc3)CC2)nc2sc(C(N)=O)c(N)c12 (stereo not drawn) [Example 12, 3-Amino-6-{4-[2-hydroxy-2-(4-methanesulfonylamino-phenyl)-ethylamino)-piperidin-1-yl]-4-propyl-thieno[2,3-b]pyridine-2-carboxylic acid amide] |  |  | 199 to 200 °C |
| CCCc1cc(N2CCC(NCc3nnn[nH]3)CC2)nc2sc(C(N)=O)c(N)c12 [3-Amino-4-propyl-6-{4-[(1H-tetrazol-5-ylmethyl)-amino]-piperidin-1-yl}-thieno[2,3-b] pyridine-2-carboxylic acid amide] | ≥ 5.00 | > 6.00 |  |
| CCCc1cc(N2CCC(NCC(O)c3ccc(-n4ccnc4)cc3)CC2)nc2sc(C(N)=O)c(N)c12 (stereo not drawn) [3-Amino-6-{4-[2-hydroxy-2-(4-imidazol-1-yl-phenyl)-ethylamino]-piperidin-1-yl}-4-propyl-thieno[2,3-b] pyridine-2-carboxylic acid amide] | ≥ 5.00 | > 6.00 |  |
| CNC1CCN(c2cc(C(F)F)c3c(N)c(C(N)=O)sc3n2)CC1 [3-Amino-4-difluoromethyl-6-(4-methylamino-piperidin-1-yl)-thieno[2,3-b]pyridine-2-carboxylic acid amide] | ≥ 5.00 | > 6.00 |  |

Further lines, results first:

| pIC50 (human IKKα) | pIC50 (human IKKβ) | melting point | Compound |
| --- | --- | --- | --- |
| ≥ 5.00 | > 6.00 |  | CCCc1cc(N2CCC(NCC(O)c3ccc(-c4cccnc4)cc3)CC2)nc2sc(C(N)=O)c(N)c12 (stereo not drawn) [3-Amino-6-{4-[2-hydroxy-2-(4-pyridin-3-yl-phenyl)-ethylamino]-piperidin-1-yl}-4-propyl-thieno[2,3-b] pyridine-2-carboxylic acid amide] |
| ≥ 5.00 | > 6.00 |  | COC(=O)c1ccc(/C=C/c2cc(N3CCC(N)CC3)nc3sc(C(N)=O)c(N)c23)cc1 [4-{(E)-2-[3-Amino-6-(4-amino-piperidin-1-yl)-2-carbamoyl-thieno[2,3-b]pyridin-4-yl]-vinyl}-benzoic acid methyl ester] |
| ≥ 5.00 | > 6.00 |  | CNC1CCN(c2cc(OCC(F)(F)F)c3c(N)c(C(N)=O)sc3n2)CC1 [3-Amino-6-(4-methylamino-piperidin-1-yl)-4-(2,2,2-trifluoro-ethoxy)-thieno[2,3-b]pyridine-2-carboxylic acid amide] |
| ≥ 5.00 | > 6.00 |  | NC(=O)c1sc2nc(N3CCC(N)CC3)cc(C3CC3)c2c1N [3-Amino-6-(4-amino-piperidin-1-yl)-4-cyclopropyl-thieno[2,3-b] pyridine-2-carboxylic acid amide] |
| ≥ 5.00 | > 6.00 |  | NC(=O)c1sc2nc(N3CCC(NCC(O)c4ccc(-c5cnccn5)cc4)CC3)cc(C(F)(F)F)c2c1N (stereo not drawn) [3-Amino-6-{4-[2-hydroxy-2-(4-pyrazin-2-yl-phenyl)-ethylamino]-piperidin-1-yl}-4-trifluoromethyl-thieno[2,3-b]pyridine-2-carboxylic acid amide] |
| ≥ 5.00 | > 6.00 |  | NC(=O)c1sc2nc(N3CCC(N)CC3)cc(C(N)=O)c2c1N [3-Amino-6-(4-amino-piperidin-1-yl)-thieno[2,3-b]pyridine-2,4-dicarboxylic acid diamide] |

From patent publication US6974870B2, “Substituted 3-amino-thieno [2,3-b]pyridine-2-carboxylic acid amide compounds and processes for preparing and their uses” (Boehringer Ingelheim Phamaceuticals, Inc., priority 2002, dated 2005)
